# Target: T1, HIV reverse transcriptase (Human immunodeficiency virus type 1 group M subtype B, UniProt P04585)
# T1 construct: Recombinant purified HIV reverse transcriptase (HIV RT); purchased Worthington Biochemical Corp (Lakewood, N.J.)
# Assay: Binding of HIV RT to biosensor coated with primer-template (Octet QK), with dNTP and NNRTI
# Design: species or system HIV-1
# Experimental: Template oligonucleotide Btn-4460-45095 and primer oligonucleotide 4496-4509AS were synthesized and analyzed (liquid chromatography-mass spectrometry (LC-MS) and electrospray ionization (ESI)) by Integrated DNA Technologies (Coralville, Iowa). Oligonucleotides were prepared in TE Buffer (10 mM Tris pH 8.0, 0.1 mM EDTA) to 100 μM. Primer and template oligonucleotides were combined (10 μM each strand) in a tube containing Annealing Buffer (10 mM Tris pH 8.0, 0.1 mM EDTA, 80 mM KCl). The tube containing primer-template solution was loaded onto a dry heat block (95° C. for 5 min), and the block was transferred to the bench top to anneal the strands by gradual cooling to ambient temperature. Uncompetitive NNRTI compounds (Pitta et al., J. Enzyme Inhib. Med. Chem. 28(10):113-22 (2013)), which is incorporated by reference herein in its entirety), were from Epigen Biosciences, Inc. (San Diego, Calif.). NNRTI compounds 7 (3-4-chloro-benzo[d]thiazol-2yl)-2-(2-chloro-6-fluorophenyl)thiazolidin-4-one) and 18 (3-(6-ethoxy-benzo[d]thiazol-2-yl)-2-(2-chloro-6-fluorophenyl)thiazolidin-4-one) were dissolved in dimethylsulfoxide (DMSO) to concentrations of 25.0 mM and 15.0 mM, respectively. Recombinant purified HIV reverse transcriptase (HIV RT) was from Worthington Biochemical Corp (Lakewood, N.J.). Ultra-pure bovine serum albumin (BSA) was from Ambion (Foster City, Calif.). All reagents and solutions were molecular biology grade.
# Primer-template duplex was diluted ([…]) into Annealing Buffer. Immediately before use, HIV Reverse Transcriptase was pre-diluted into Enzyme Diluent (50 mM Tris, pH 8.0, 8 mM MgCl2). Binding buffer (50 mM Tris, pH 8.0, 160 mM KCl, 0.5 mM EDTA, 11 mM MgCl2, 0.3% (v/v) Triton X-100, 5.3 mM dithiothreitol (DTT), 100 μg/mL bovine serum albumin (BSA), 100 μM dNTP (dATP, dTTP, dGTP or dCTP), 100 nM HIV RT). NNRTI compounds were pre-diluted with DMSO immediately before being spiked into Binding Buffer. Reaction Buffer was Binding Buffer without NNRTI, dNTP or HIV RT enzyme. Buffer containing Primer-Template (PT), PT Wash Buffer, Binding buffer containing one dNTP, and Reaction Buffer were loaded (200 μL/well) into a Greiner 96-well black microplate (Sigma-Aldrich, St. Louis, Mo.; catalog number M9685). Streptavidin (SA) Biosensors (Pall ForteBio Corp., Menlo Park, Calif.; catalog number 18-5019) were re-hydrated in Annealing Buffer for approximately 10 minutes before use. The Octet QK biosensor system (Pall ForteBio Corp., Menlo Park, Calif.) was set for 30° C. operation and was programmed to coat the biosensors with Primer-Template and wash away unbound Primer-Template with PT Wash Buffer. Biosensors were transferred to Binding Buffer containing HIV RT+dCTP±NNRTI (association phase) followed by Reaction Buffer (dCTP incorporation and dissociation phase). Similarly, biosensors were transferred cyclically to solutions containing individual deoxyribonucleoside triphosphates (dATP, dGTP, dCTP or dTTP) as indicated. Cycles of binding and incorporation were repeated multiple times.
# Data were imported into Microsoft Excel and Prism software (GraphPad Software, San Diego, Calif.) for display. The progress of binding and dissociation reactions was smoothed either by averaging within a 19.4-second window or by Prism software (19.4-second window and 6th-order smoothing polynomial).
SMILES,"binding to biosensor coated with primer-template in the association phase (HIV RT + incorrect nucleotides dCTP and dATP (cycles 7 and 8) + NNRTI 40 μM, FIG. 7A)","binding to biosensor coated with primer-template in the association phase (HIV reverse transcriptase + correct dNTP + NNRTI 40 μM, ALK primer-template, FIG. 7A)","binding to biosensor coated with primer-template in the association phase (control: HIV RT with 40 μM NNRTI, no dNTP, FIG. 7A)","binding to biosensor coated with primer-template in the association phase (HIV RT + incorrect nucleotide dTTP (cycle 4) + NNRTI 80 μM, FIG. 8)","binding to biosensor coated with primer-template in the association phase (HIV reverse transcriptase + correct dNTP + NNRTI 80 μM, ALK primer-template, FIG. 8)","binding to biosensor coated with primer-template in the association phase (control: HIV RT with 80 μM NNRTI, no dNTP, FIG. 8)"
O=C1CSC(c2c(F)cccc2Cl)N1c1nc2c(Cl)cccc2s1 (stereo not drawn) [NNRTI compound 7],did not produce a binding peak,distinct peaks for binding,did not produce appreciable binding peaks,–,–,–
"CCOc1ccc2nc(N3C(=O)CSC3c3c(F)cccc3Cl)sc2c1 (stereo not drawn) [NNRTI compound 18, 3-(6-ethoxy-benzo[d]thiazol-2-yl)-2-(2-chloro-6-fluorophenyl)thiazolidin-4-one]",–,–,–,did not show a binding peak,distinct peaks for binding,did not produce appreciable binding peaks
